The text below walks through data of ChEMBL document CHEMBL4043271, “Synthesis, computational studies and enzyme inhibitory kinetics of substituted methyl[2-(4-dimethylamino-benzylidene)-hydrazono)-4-oxo-thiazolidin-5-ylidene]acetates as mushroom tyrosinase inhibitors” (Bioorg Med Chem, 2017).

Activity calls are given as the source filed them. No cut-off for these calls is given here.

For data set [1], the target named is T1, Mushroom tyrosinase (Agaricus bisporus, UniProt O42713+Q00024+C7FF04+C7FF05). Put plainly: Inhibition of mushroom tyrosinase using L-DOPA as substrate preincubated for 10 mins followed by substrate addition measured after 20 mins.
The test system of data set [2] is COC(=O)/C=C1\S/C(=N/N=C/c2ccncc2)NC1=O. Put plainly: Non-competitive inhibition of mushroom tyrosinase assessed as Vmax of substrate at 8.50 uM preincubated for 10 mins followed by addition of varying concentration of substrate L-DOPA measured every 30 secs up to 5 mins by Lineweaver-Burk plot analysis (reference value: […] deltaA/s). To be noted: Agaricus bisporus.

Data set [3] shares this test system. Put plainly: Non-competitive inhibition of mushroom tyrosinase assessed as Vmax of substrate at 1.06 uM preincubated for 10 mins followed by addition of varying concentration of substrate L-DOPA measured every 30 secs up to 5 mins by Lineweaver-Burk plot analysis (reference value: […] deltaA/s). As to conditions: Agaricus bisporus.
Data set [4] has the same test system. Put plainly: Non-competitive inhibition of mushroom tyrosinase assessed as Vmax of substrate at 17 uM preincubated for 10 mins followed by addition of varying concentration of substrate L-DOPA measured every 30 secs up to 5 mins by Lineweaver-Burk plot analysis (reference value: […] deltaA/s). To be noted: Agaricus bisporus.
Data set [5] has the same test system. Description: Non-competitive inhibition of mushroom tyrosinase assessed as substrate Km at 1.06 to 17 uM preincubated for 10 mins followed by addition of varying concentration of substrate L-DOPA measured after 20 mins by Lineweaver-Burk plot analysis (reference value: […] mM). To be noted: Agaricus bisporus.
Data set [6] has as its target Mushroom tyrosinase (Agaricus bisporus) (UniProt O42713+Q00024+C7FF04+C7FF05). Put plainly: Non-competitive inhibition of mushroom tyrosinase at 1.06 to 34 uM preincubated for 10 mins followed by addition of varying concentration of substrate L-DOPA measured after 20 mins by Dixon plot analysis.
Data set [7] concerns the target T1, Mushroom tyrosinase. Put plainly: Non-competitive inhibition of mushroom tyrosinase at 1.06 to 17 uM preincubated for 10 mins followed by addition of varying concentration of substrate L-DOPA measured after 20 mins by Lineweaver-Burk plot analysis.

Chain of Mushroom tyrosinase (Agaricus bisporus) (from UniProt O42713+Q00024+C7FF04+C7FF05) (C7FF05 whole entry, looked up): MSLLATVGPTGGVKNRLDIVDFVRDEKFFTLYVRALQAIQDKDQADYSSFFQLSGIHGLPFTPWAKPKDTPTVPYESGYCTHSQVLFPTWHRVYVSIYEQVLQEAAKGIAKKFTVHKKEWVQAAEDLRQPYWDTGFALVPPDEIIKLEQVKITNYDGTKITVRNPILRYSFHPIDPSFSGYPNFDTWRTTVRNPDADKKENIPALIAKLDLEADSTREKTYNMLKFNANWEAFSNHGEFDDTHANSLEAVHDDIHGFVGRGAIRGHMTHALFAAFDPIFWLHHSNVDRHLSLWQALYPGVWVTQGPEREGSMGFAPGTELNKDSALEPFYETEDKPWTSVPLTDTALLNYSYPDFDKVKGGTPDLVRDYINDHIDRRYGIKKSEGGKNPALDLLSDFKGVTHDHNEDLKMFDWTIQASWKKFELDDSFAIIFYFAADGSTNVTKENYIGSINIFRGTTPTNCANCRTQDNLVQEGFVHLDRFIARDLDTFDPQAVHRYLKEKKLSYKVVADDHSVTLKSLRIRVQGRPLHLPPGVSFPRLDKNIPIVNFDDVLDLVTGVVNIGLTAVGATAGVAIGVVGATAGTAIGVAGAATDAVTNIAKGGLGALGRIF
Chain of Mushroom tyrosinase (Agaricus bisporus) (from UniProt O42713+Q00024+C7FF04+C7FF05) (C7FF04 whole entry, looked up): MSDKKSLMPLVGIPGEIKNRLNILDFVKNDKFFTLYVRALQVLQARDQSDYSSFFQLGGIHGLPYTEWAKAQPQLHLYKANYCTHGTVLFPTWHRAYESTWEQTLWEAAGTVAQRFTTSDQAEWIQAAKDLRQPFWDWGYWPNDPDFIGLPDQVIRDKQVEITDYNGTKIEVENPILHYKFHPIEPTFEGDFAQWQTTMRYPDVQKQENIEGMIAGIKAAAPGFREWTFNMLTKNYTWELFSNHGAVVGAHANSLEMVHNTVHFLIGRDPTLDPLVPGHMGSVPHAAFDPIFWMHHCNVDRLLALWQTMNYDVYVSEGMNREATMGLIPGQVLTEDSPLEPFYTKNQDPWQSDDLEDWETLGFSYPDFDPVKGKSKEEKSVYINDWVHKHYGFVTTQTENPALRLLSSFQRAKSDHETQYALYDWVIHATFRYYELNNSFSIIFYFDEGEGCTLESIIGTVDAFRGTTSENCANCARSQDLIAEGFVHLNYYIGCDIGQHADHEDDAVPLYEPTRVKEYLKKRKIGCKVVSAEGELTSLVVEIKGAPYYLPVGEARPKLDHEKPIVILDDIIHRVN
Chain of Mushroom tyrosinase (Agaricus bisporus) (from UniProt O42713+Q00024+C7FF04+C7FF05) (Q00024 whole entry, looked up): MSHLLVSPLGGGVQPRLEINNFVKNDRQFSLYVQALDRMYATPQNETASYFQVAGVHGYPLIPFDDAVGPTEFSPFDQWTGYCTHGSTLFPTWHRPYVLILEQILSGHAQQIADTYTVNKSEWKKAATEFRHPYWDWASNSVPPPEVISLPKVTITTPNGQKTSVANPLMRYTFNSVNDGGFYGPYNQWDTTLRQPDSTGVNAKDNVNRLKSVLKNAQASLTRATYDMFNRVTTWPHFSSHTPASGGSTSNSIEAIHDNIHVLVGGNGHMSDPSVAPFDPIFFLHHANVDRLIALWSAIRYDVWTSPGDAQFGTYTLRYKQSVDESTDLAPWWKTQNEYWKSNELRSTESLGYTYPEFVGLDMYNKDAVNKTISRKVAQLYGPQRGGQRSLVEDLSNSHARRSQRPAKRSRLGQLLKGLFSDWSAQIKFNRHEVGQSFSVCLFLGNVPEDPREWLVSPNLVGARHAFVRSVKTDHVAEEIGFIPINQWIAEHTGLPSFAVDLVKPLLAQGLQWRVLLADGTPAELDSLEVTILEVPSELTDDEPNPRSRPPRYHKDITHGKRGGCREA
Chain of Mushroom tyrosinase (Agaricus bisporus) (from UniProt O42713+Q00024+C7FF04+C7FF05) (O42713 whole entry, looked up): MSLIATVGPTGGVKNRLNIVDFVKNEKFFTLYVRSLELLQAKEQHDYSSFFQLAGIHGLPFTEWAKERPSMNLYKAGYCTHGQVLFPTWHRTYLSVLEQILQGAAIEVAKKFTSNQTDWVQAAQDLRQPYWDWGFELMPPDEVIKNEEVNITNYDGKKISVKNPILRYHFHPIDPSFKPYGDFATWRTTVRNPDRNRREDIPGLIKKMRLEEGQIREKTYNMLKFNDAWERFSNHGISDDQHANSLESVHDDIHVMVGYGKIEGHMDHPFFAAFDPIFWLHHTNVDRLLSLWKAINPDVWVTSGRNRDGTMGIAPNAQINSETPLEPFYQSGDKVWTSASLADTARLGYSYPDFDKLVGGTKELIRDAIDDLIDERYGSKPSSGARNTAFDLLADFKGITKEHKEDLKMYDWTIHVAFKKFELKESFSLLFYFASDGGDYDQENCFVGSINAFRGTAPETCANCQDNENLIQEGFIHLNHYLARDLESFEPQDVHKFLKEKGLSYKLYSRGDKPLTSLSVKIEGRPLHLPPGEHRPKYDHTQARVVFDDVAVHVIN

As for `COC(=O)/C=C1\SC(N/N=C/c2ccco2)=NC1=O`, the IC50 at Mushroom tyrosinase [1] came out at 75.26 µM.
Same read-out and setting: then `COC(=O)/C=C1\S/C(=N/N=C/c2ccc[nH]2)NC1=O`, with 50.12 µM; and `COC(=O)/C=C1\S/C(=N/N=C/c2ccc(OCc3ccc(OC)cc3)cc2)NC1=O`, with 297.6 µM; and `COC(=O)/C=C1\S/C(=N/N=C/c2ccc(Br)s2)NC1=O`, with 348.93 µM.
For “Mushroom tyrosinase (Agaricus bisporus) (from UniProt O42713+Q00024+C7FF04+C7FF05)”, the Vmax (10'-3deltaA/s) came out at 1 in data set [2] and 3.33 in data set [4]. Moreover, in data set [3], the Vmax (10'-4deltaA/s) was found to be 5.55. In addition, the Michaelis-Menten constant (Km) in data set [5] amounted to 1000 µM.
With `COC(=O)/C=C1\S/C(=N/N=C/c2ccncc2)NC1=O`, the IC50 at Mushroom tyrosinase [1] was found to be 3.17 µM. Also, in data set [6], the inhibition result was “Active”. Moreover, the inhibitory constant (Ki) at Mushroom tyrosinase [7] was 1.5 µM.
In turn, `COC(=O)/C=C1\S/C(=N/N=C/c2ccc(C)o2)NC1=O` registered an IC50 against Mushroom tyrosinase [1] of 49.82 µM.
`COC(=O)/C=C1\S/C(=N/N=C/c2ccc(N(C)C)cc2)NC1=O` returned a half-inhibitory concentration (IC50) at Mushroom tyrosinase [1] of 100.45 µM.
Turning to `COC(=O)/C=C1\S/C(=N/N=C/c2ccc(OCc3ccccc3)cc2)NC1=O`, on Mushroom tyrosinase [1], the IC50 was 141.77 µM.
Same read-out and setting: then `COC(=O)/C=C1\S/C(=N/N=C/C=C/c2ccccc2)NC1=O`, with 208.25 µM.
